Values quoted from earlier work as cited in patent US8912356B2, “DCC mediated coupling for halofenate manufacture” (Metabolex, Inc., priority 2013, dated 2014).

Experiments:
cytochrome P450 2C9 = cytochrome P450 2C9 (Homo sapiens, UniProt P11712); details: relative to (+)-enantiomer of halofenic acid
[1] = administration of racemic mixture

cytochrome P450 2C9, sequence (P11712 whole entry): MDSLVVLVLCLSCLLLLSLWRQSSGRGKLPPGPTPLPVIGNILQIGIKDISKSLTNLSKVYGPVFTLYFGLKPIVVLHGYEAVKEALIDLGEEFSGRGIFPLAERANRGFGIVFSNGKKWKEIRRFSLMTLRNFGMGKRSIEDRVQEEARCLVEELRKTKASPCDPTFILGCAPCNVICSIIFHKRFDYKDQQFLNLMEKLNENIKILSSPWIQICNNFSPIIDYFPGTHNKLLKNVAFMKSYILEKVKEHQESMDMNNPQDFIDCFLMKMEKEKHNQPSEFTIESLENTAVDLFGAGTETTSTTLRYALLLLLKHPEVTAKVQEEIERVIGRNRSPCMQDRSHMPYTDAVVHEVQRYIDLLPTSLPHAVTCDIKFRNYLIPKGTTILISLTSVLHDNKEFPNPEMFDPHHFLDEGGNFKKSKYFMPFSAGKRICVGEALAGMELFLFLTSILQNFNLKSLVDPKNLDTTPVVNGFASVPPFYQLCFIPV

Structure (SMILES) | ability to inhibit cytochrome P450 2C9 compared to the (+)-enantiomer (cytochrome P450 2C9) | plasma glucose [1] | serum uric acid [1] | triglycerides [1] | potential adverse drug-drug interactions (racemic halofenate, with Coumadin) | adverse effects (racemic mixture)
O=C(O)[C@H](Oc1cccc(C(F)(F)F)c1)c1ccc(Cl)cc1 [(−)-enantiomer of halofenic acid, (−)-4-chloro-α-(3-trifluoromethylphenoxy)phenylacetic acid] | about twenty-fold less active | – | – | – | – | –
CC(=O)NCCOC(=O)C(Oc1cccc(C(F)(F)F)c1)c1ccc(Cl)cc1 (racemic) [halofenate, 2-acetamidoethyl (4-chlorophenyl) (3-trifluoromethylphenoxy)acetate] | – | lowering | lowering | lowering | difficulties controlling anticoagulation with Coumadin™ | nausea, gastrointestinal ulcers, and gastrointestinal bleeding
